Data published in PMC11787452, “Substrate and inhibitor specificity of Plasmodium nucleoside transporters ENT1 orthologs” (The Journal of Biological Chemistry, 2024).
Where “and” joins values, the source holds several entries; their conditions need not be identical. Equal entries are not always repeated. Where two headings read alike, the source gives them in different places. Each block holds one molecule with its values, some of them ahead of it.

How the values were obtained:
293T cells = assay: Cytotoxicity assay (Cell Counting Kit-8) on 293T cells; assay type: cell-based; conditions: 1.5 to 400 μM, 48 h, compared with GSK4, GSK4-1, GSK4-2
Protocol: (§1) HepG2 and 293T cells were obtained from ATCC and cultured in Dulbecco’s modified Eagle’s medium supplemented with 10% fetal bovine serum and 1% penicillin-streptomycin (Gibco). Cells were maintained at 37 °C in a humidified atmosphere containing 5% CO2. Cells were seeded at a density of 5 × 10^3 cells per well in 96-well plates and allowed to adhere for 24 h before treatment. Cells were treated with the test compounds at concentrations ranging from 1.5 to 400 μM for 48 h. Control wells were treated with an equivalent concentration of DMSO (vehicle control). Cell viability was assessed using the Cell Counting Kit-8. After 48 h of treatment, 10 μl of Cell Counting Kit-8 solution was added to each well, and the plates were incubated for 2 h at 37 °C. The absorbance was measured at 450 nm using a microplate reader. Cell viability was expressed as a percentage of the control group, and IC50 values were calculated using nonlinear regression analysis (GraphPad Prism 8.0). Data are presented as mean ± SD from three independent experiments, each performed in triplicate.

HepG2 cells = assay: Cytotoxicity assay (Cell Counting Kit-8) on HepG2 cells; assay type: cell-based; conditions: 1.5 to 400 μM, 48 h, compared with GSK4, GSK4-1, GSK4-2
Protocol: as §1

PvENT1 = target: T1, PvENT1 (Plasmodium vivax, UniProt A5K8B0); assay: ITC binding to PvENT1; conditions: for Kd: 25 °C, 25 mM MES pH 6.0, 150 mM NaCl, 0.05% DDM
T1 construct: 10xHis (N); made in house; host or cells: Sf9 insect cells (baculovirus)
T1 sequence (A5K8B0 1-416): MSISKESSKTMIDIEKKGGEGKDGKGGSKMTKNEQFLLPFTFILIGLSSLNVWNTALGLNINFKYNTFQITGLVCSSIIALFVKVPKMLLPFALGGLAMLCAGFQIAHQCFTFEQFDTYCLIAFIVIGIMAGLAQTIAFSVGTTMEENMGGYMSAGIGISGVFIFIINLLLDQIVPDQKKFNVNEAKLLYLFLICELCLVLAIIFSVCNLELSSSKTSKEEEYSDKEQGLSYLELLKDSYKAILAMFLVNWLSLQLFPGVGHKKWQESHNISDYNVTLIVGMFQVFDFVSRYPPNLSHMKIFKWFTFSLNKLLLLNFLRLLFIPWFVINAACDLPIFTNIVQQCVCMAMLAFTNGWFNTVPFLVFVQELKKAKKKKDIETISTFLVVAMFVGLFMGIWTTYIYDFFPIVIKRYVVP
Protocol: (§2) All the constructs were subcloned and inserted into a modified pFastBac with an N-terminal 10 × His tag. The baculovirus was generated in DH10Bac for recombinant protein expression. After 72 h of infection, Sf9 insect cells were harvested. For structural determination of the PfENT1 protein, Sf9 cells were solubilized in buffer containing 25 mM MES (pH 6.0), 150 mM NaCl, 2% (w/v) n-dodecyl-β-D-maltopyranoside (DDM), and protease inhibitor cocktail (0.8 μM aprotinin, 2 μM pepstatin, and 5 μg/ml leupeptin) at 4 °C for 2 h. After centrifugation at 18,000 rpm for 45 min at 4 °C, the detergent-soluble supernatant was collected via centrifugation at 4 °C for 60 min and incubated with Ni-NTA resin (QIAGEN) at 4 °C for 20 min. The resin was further washed with 25 mM MES pH 6.0, 150 mM NaCl, 10 mM imidazole, and 0.05% (w/v) DDM and eluted with buffer containing 25 mM MES pH 6.0, 150 mM NaCl, 300 mM imidazole, and 0.05% (w/v) DDM. The protein was further purified via size-exclusion chromatography (Superdex 200 Increase 10/300; GE Healthcare) in buffer containing 25 mM MES (pH 6.0), 150 mM NaCl, and 0.05% (w/v) DDM. The peak fractions were pooled and concentrated to 10∼50 μM for the nucleoside-binding assay. The protein purification of the bacterial nucleoside transporter NupG was performed as described in previous studies ([35]).
(§3) […] binding to ENTs was measured at 25 °C via a MicroCal PEAQ-ITC. The purified ENT protein was concentrated to 25 to 50 μM for ITC experiments. The nucleoside was diluted to 5 mM via the same buffer employed for protein purification, which consisted of 25 mM MES (pH 6.0), 150 mM NaCl, and 0.05% DDM. The inhibitor was diluted to 250 μM via the same buffer employed for protein purification, which consisted of 25 mM MES (pH 6.0), 150 mM NaCl, and 0.05% DDM. All the titrations were repeated three times.

PbENT1 = target: T2, PbENT1 (Plasmodium berghei, UniProt A0A509AYF4); assay: ITC binding to PbENT1; conditions: for Kd: 25 °C, 25 mM MES pH 6.0, 150 mM NaCl, 0.05% DDM
T2 construct: 10xHis (N); made in house; host or cells: Sf9 insect cells (baculovirus)
T2 sequence (A0A509AYF4 1-412): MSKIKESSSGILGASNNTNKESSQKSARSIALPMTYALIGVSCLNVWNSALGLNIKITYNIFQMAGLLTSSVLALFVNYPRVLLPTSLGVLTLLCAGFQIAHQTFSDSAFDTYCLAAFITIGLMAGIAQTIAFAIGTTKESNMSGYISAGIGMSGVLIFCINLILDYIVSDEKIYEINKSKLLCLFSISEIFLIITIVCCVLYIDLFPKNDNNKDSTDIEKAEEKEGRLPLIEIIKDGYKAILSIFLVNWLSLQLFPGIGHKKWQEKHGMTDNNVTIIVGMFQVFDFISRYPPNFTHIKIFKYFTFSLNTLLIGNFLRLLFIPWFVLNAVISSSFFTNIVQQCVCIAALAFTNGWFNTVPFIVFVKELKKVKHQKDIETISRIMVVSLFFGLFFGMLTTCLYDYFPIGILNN
Protocol: as §2, §3

[1] = target: T3, bacterial nucleoside transporter NupG (Escherichia coli, UniProt P0AFF4); assay: ITC binding to NupG
T3 construct: made in house
T3 sequence (P0AFF4 1-418): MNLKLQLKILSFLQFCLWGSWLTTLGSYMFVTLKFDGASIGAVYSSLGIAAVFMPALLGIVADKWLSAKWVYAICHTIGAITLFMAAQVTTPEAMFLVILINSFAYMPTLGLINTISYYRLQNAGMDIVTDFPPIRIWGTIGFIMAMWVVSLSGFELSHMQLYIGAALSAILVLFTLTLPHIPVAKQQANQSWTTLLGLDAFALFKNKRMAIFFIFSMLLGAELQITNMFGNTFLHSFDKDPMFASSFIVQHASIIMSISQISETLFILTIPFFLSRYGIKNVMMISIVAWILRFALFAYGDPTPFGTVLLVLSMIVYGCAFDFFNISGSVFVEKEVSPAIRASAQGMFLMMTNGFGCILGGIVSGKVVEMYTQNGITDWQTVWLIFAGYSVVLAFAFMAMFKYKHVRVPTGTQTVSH
Protocol: as §2, with “The protein purification of the bacterial nucleoside transporter NupG was performed as described in previous studies ([35]).” left out
(§4) […] binding to ENTs was measured at 25 °C via a MicroCal PEAQ-ITC. […]

PfENT1 = target: T4, PfENT1 (Plasmodium falciparum, UniProt Q8IDM6); assay: ITC binding to PfENT1; conditions: for Kd: 25 °C, 25 mM MES pH 6.0, 150 mM NaCl, 0.05% DDM
T4 construct: 10xHis (N); made in house; host or cells: Sf9 insect cells (baculovirus)
Protocol: as §2, §3

PfENT1M389L = target: T5, PfENT1M389L (Plasmodium falciparum, UniProt Q8IDM6, M389L); assay: ITC binding to PfENT1M389L
T5 construct: 10xHis (N); made in house; host or cells: Sf9 insect cells (baculovirus)
Protocol: as §2, §3

PbENT1C43S = target: T6, PbENT1C43S (Plasmodium berghei, UniProt A0A509AYF4, C43S); assay: ITC binding to PbENT1C43S
T6 construct: 10xHis (N); made in house; host or cells: Sf9 insect cells (baculovirus)
Protocol: as §2, §3

PbENT1M64I = target: T7, PbENT1M64I (Plasmodium berghei, UniProt A0A509AYF4, M64I); assay: ITC binding to PbENT1M64I
T7 construct: 10xHis (N); made in house; host or cells: Sf9 insect cells (baculovirus)
Protocol: as §2, with “The protein purification of the bacterial nucleoside transporter NupG was performed as described in previous studies ([35]).” left out
as §4

PfENT1I70M = target: T8, PfENT1I70M (Plasmodium falciparum, UniProt Q8IDM6, I70M); assay: ITC binding to PfENT1I70M
T8 construct: 10xHis (N); made in house; host or cells: Sf9 insect cells (baculovirus)
T8 sequence (Q8IDM6 1-422 I70M): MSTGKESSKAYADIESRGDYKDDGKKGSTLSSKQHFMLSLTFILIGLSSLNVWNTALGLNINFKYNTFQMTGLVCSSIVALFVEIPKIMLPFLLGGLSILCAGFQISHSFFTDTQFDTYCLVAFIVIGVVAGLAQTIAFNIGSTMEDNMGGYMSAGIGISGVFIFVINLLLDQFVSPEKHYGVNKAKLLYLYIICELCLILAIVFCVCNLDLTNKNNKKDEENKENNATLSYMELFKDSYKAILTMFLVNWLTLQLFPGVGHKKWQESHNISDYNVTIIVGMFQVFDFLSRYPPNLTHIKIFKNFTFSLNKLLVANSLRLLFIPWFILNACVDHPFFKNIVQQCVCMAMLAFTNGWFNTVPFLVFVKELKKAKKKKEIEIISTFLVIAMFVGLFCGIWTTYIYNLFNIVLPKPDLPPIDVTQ
Protocol: as §2, with “The protein purification of the bacterial nucleoside transporter NupG was performed as described in previous studies ([35]).” left out
as §4

PfENT1S49C = target: T9, PfENT1S49C (Plasmodium falciparum, UniProt Q8IDM6, S49C); assay: ITC binding to PfENT1S49C
T9 construct: 10xHis (N); made in house; host or cells: Sf9 insect cells (baculovirus)
Protocol: as §2, with “The protein purification of the bacterial nucleoside transporter NupG was performed as described in previous studies ([35]).” left out
as §4

[2] = read-out: Kd (binding affinity for PvENT1)
[3] = read-out: Kd (binding affinity for PfENT1)
[4] = read-out: Kd (binding affinity for PbENT1)

T4 sequence (Q8IDM6 whole entry): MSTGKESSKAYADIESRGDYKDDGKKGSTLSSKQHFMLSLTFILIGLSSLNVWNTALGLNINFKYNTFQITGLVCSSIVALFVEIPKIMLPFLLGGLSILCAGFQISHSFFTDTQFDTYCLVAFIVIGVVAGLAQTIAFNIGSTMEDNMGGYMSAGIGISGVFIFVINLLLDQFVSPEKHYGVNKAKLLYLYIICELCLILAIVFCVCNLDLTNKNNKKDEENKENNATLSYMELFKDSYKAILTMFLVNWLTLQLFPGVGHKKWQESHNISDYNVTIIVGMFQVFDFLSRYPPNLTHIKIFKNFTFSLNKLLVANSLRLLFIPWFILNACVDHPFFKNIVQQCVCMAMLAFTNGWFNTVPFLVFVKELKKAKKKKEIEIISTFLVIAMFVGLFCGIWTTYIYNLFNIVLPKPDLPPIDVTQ
T7 sequence (A0A509AYF4 whole entry M64I): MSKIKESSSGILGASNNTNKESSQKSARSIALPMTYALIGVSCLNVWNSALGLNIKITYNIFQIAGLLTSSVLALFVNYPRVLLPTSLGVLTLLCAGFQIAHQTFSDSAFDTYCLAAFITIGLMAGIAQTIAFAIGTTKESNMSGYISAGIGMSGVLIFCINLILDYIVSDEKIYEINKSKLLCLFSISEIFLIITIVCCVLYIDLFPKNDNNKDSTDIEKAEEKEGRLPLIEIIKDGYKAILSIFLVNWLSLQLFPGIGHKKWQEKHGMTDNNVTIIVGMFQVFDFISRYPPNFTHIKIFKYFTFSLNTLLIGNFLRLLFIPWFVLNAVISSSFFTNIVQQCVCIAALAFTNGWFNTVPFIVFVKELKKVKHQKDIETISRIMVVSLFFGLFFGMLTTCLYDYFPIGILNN
T6 sequence (A0A509AYF4 whole entry C43S): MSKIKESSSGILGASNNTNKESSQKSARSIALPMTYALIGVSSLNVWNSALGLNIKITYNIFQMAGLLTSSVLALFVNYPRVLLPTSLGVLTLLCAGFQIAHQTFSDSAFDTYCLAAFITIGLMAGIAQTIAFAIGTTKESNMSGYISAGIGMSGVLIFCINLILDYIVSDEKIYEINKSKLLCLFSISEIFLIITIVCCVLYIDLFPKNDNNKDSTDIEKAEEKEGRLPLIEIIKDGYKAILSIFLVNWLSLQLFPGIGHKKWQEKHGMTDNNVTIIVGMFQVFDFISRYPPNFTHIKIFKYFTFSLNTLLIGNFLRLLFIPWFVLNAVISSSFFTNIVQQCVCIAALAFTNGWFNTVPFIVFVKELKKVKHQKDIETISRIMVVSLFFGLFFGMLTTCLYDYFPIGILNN
T5 sequence (Q8IDM6 whole entry M389L): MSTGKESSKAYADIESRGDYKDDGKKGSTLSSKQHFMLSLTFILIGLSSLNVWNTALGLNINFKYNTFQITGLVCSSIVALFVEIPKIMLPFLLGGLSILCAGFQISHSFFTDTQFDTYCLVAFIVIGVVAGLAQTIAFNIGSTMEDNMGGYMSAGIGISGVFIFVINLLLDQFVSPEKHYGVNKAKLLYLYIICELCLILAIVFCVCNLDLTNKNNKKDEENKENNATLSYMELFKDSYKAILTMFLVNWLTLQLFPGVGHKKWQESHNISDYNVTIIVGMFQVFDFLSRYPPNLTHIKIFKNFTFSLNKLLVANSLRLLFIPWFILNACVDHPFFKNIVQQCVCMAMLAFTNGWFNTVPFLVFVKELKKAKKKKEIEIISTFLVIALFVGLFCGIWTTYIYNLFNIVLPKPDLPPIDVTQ
T9 sequence (Q8IDM6 whole entry S49C): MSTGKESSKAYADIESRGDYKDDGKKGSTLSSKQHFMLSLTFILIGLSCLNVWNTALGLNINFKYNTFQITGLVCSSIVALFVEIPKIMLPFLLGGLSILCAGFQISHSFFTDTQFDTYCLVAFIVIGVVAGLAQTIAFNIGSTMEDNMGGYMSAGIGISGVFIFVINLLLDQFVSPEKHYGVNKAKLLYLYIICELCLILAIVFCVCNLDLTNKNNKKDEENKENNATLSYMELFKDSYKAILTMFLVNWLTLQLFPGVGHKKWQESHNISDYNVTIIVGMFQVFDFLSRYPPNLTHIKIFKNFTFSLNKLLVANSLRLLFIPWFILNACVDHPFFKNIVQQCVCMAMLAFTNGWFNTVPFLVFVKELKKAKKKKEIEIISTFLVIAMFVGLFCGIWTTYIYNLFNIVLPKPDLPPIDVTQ

SMILES: O=C(NCCN1CCCCCC1=O)c1nc(-c2ccccc2)oc1C1CC1 [GSK4-3]
cytotoxicity (in words) (293T cells): lower cytotoxicity
cytotoxicity (in words) (HepG2 cells): lower cytotoxicity
binding affinity for PvENT1 (in words) (PvENT1): comparable binding
Kd (PvENT1; [2]): 0.0572 µM and 0.0376 µM and 0.0308 µM
binding affinity for PbENT1 (in words) (PbENT1): negligible binding
binding to NupG (in words) [1]: cannot bind
Kd (PfENT1; [3]): 0.0219 µM and 0.0134 µM and 0.0164 µM
increase in binding affinity for PfENT1M389L compared with parent compound GSK4 (PfENT1M389L): 6 fold
Kd (PfENT1M389L; Kd (binding to PfENT1M389L), 25 °C, pH 6.0): 0.0444 µM

SMILES: OC[C@H]1O[C@@H](n2cnc3c(O)ncnc32)[C@H](O)[C@@H]1O [inosine]
Kd (PbENT1C43S; Kd (binding to PbENT1C43S), 25 °C, pH 6.0): 51.4 µM and 55.9 µM and 58.4 µM
Kd (PbENT1M64I; Kd (binding to PbENT1M64I), 25 °C, pH 6.0): 61.6 µM and 53.5 µM and 58.9 µM
Kd (PvENT1; [2]): ~146 µM and 146 µM and 161 µM and 173 µM
Kd (PfENT1I70M; 25 °C, pH 6.0): 58.3 µM and 78.5 µM and 65.3 µM
Kd (PbENT1; [4]): 13.6 µM and 6.11 µM and 13.5 µM
Kd (PfENT1; [3]): ~64.2 µM

SMILES: Nc1nc2c(ncn2[C@@H]2O[C@H](CO)[C@@H](O)[C@H]2O)c(=O)[nH]1 [guanosine]
Kd (PvENT1; [2]): ~49.3 µM and 49.3 µM and 50.5 µM and 46.3 µM
Kd (PbENT1; [4]): 15.6 µM and 8.69 µM and 11.3 µM
Kd (PfENT1; Kd (binding affinity for PfENT1)): ~179 µM

binding affinity for PbENT1 (in words) (PbENT1): No binding affinity was detected
SMILES: O=c1ccn([C@@H]2O[C@H](CO)[C@@H](O)[C@H]2O)c(=O)[nH]1 [uridine]

SMILES: O=c1[nH]cnc2c1ncn2[C@@H]1O[C@H](CO)[C@@H](O)[C@H]1O [inosine]
binding affinity of PbENT1C43S relative to WT PbENT1 (PbENT1C43S): fivefold lower
binding affinity of PbENT1M64I relative to WT PbENT1 (PbENT1M64I): fivefold lower
thermodynamic pattern of binding to PvENT1 (PvENT1): enthalpy-entropy compensation
ΔH of binding to PvENT1 (PvENT1; exothermic reaction): < 0
affinity for PfENT1I70M (in words) (PfENT1I70M; compared with PfENT1): comparable affinity
thermodynamic pattern of binding to PbENT1 (PbENT1): enthalpy-driven
ΔH of binding to PbENT1 (PbENT1; exothermic reaction): < 0
thermodynamic pattern of binding to PfENT1 (PfENT1): entropy-driven
Kd (PfENT1; [3]): 77.3 µM
ΔH of binding to PfENT1 (PfENT1; endothermic reaction): > 0
binding to PfENT1S49C (in words) (PfENT1S49C): complete abolishment

SMILES: O=c1[nH]c(=O)c2ncn([C@@H]3O[C@H](CO)[C@@H](O)[C@H]3O)c2[nH]1 [xanthosine]
Kd (PvENT1; Kd (binding affinity for PvENT1)): 114 µM and 122 µM and 107 µM
Kd (PbENT1; Kd (binding affinity for PbENT1)): 88.2 µM and 92.8 µM and 95.5 µM
